Test results reported in paper PMC10320503, “Rapid-reaction kinetics of the butyryl-CoA dehydrogenase component of the electron-bifurcating crotonyl-CoA-dependent NADH:ferredoxin oxidoreductase from Megasphaera elsdenii” (The Journal of Biological Chemistry, 2023).

Experiments:
[1] = target: T1, bcd (butyryl-CoA dehydrogenase) (Megasphaera elsdenii, UniProt Q06319); experiment: UV-visible titration and EPR of the bound flavin; type: binding; conditions: dithionite titrations at pH 6.0, 7.5 and 9.0, 25 °C; EPR at 77 K
T1 construct: isolated bcd component without EtfAB, C-terminal Strep II tag (pASG-IBA3), expressed in E. coli BL21; FAD-loaded, CoA persulfide removed by dithionite
T1 sequence (Q06319 1-383): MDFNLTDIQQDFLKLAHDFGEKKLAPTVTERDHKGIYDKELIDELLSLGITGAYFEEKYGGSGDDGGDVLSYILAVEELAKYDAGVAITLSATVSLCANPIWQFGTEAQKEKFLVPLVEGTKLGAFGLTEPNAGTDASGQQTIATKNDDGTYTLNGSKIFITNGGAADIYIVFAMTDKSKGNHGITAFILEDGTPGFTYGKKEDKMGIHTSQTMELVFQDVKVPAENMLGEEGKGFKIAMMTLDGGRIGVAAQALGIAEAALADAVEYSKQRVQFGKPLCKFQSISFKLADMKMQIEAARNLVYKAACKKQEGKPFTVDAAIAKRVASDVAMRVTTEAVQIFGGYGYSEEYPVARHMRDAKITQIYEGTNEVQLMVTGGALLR

[2] = target: T1, bcd (butyryl-CoA dehydrogenase); experiment: stopped-flow reduction of bcd FAD at […] nm, hyperbolic fit of kobs versus [butyryl-CoA]; type: biochemical; conditions: oxidized bcd 10 μM, 50 mM Tris-HCl, 150 mM NaCl, pH 7.5, 10 °C, anaerobic; reverse of the physiological direction; read-out: Kd (apparent)
[3] = target: T1, bcd (butyryl-CoA dehydrogenase); experiment: stopped-flow reoxidation of reduced bcd; charge-transfer complex absorbance; type: biochemical; conditions: dithionite-reduced bcd, 50 mM Tris-HCl, 150 mM NaCl, pH 7.5, 10 °C, anaerobic
[4] = target: T2, EtfAB, the electron-transferring flavoprotein component of the crotonyl-CoA-dependent NADH:ferredoxin … (Megasphaera elsdenii, UniProt O85692 1-338; O85691 1-270); experiment: stopped-flow spectrophotometry (rate of electron transfer against protein concentration); prereduced EtfAB mixed with oxidized bcd, anaerobic, monitored at 450 nm; 1:1 ratio at 2 to 70 uM, or 3 uM EtfAB with 3 to 24 uM bcd; 50 mM Tris-HCl, 150 mM NaCl, pH 7.5, 25 C; Kd limit inferred from the rate constant being independent of concentration; conditions: both partners purified
T2 construct: Electron-transferring flavoprotein alpha subunit (EtfA), Megasphaera elsdenii; Electron-transferring flavoprotein beta subunit (EtfB), Megasphaera elsdenii; prereduced with sodium dithionite before the assay; Plasmid derived from pASG-IBA3; also called prereduced EtfAB; source: E. coli BL21, purified (Strep-Tactin XT Superflow)
T2 sequence (looked up) 1: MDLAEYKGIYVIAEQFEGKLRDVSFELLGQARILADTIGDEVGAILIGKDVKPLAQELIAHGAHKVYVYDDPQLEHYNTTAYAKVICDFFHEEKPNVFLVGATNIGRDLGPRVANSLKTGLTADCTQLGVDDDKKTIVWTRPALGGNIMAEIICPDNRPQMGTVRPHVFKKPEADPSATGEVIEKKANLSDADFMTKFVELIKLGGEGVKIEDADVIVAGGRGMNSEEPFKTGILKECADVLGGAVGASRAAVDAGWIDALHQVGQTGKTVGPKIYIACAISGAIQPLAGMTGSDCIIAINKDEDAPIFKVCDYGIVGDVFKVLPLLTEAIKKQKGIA
T2 sequence (looked up) 2: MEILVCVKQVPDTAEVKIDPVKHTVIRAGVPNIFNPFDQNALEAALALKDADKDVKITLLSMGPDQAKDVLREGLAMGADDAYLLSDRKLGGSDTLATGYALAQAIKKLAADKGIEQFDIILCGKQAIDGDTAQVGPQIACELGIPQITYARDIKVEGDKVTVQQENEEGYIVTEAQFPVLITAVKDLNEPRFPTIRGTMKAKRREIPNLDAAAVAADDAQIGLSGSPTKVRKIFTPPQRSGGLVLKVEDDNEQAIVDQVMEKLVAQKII

For `Cc1cc2nc3c(=O)[nH]c(=O)nc-3n(C[C@H](O)[C@H](O)[C@H](O)COP(=O)(O)OP(=O)(O)OC[C@H]3O[C@@H](n4cnc5c(N)ncnc54)[C@H](O)[C@@H]3O)c2cc1C` [FAD], the “UV-visible titration and EPR of the bound flavin” value [1] was “the one-electron reduced FAD neutral semiquinone (FADH•) accumulates transiently”.

With `CCCC(=O)SCCNC(=O)CCNC(=O)[C@H](O)C(C)(C)COP(=O)(O)OP(=O)(O)OC[C@H]1O[C@@H](n2cnc3c(N)ncnc32)[C@H](O)[C@@H]1OP(=O)(O)O` [butyryl-CoA] the Kd [2] was 60 µM.

With `C/C=C/C(=O)SCCNC(=O)CCNC(=O)[C@H](O)C(C)(C)COP(=O)(O)OP(=O)(O)OC[C@H]1O[C@@H](n2cnc3c(N)ncnc32)[C@H](O)[C@@H]1OP(=O)(O)O` [crotonyl-CoA] the “stopped-flow reoxidation of reduced bcd; charge-transfer complex absorbance” value [3] was “indicating extremely rapid and tight binding of crotonyl-CoA to bcd”.

B1: butyryl-CoA dehydrogenase (bcd) component of EtfAB-bcd from Megasphaera elsdenii (enzyme)
chain: MDFNLTDIQQDFLKLAHDFGEKKLAPTVTERDHKGIYDKELIDELLSLGITGAYFEEKYGGSGDDGGDVLSYILAVEELAKYDAGVAITLSATVSLCANPIWQFGTEAQKEKFLVPLVEGTKLGAFGLTEPNAGTDASGQQTIATKNDDGTYTLNGSKIFITNGGAADIYIVFAMTDKSKGNHGITAFILEDGTPGFTYGKKEDKMGIHTSQTMELVFQDVKVPAENMLGEEGKGFKIAMMTLDGGRIGVAAQALGIAEAALADAVEYSKQRVQFGKPLCKFQSISFKLADMKMQIEAARNLVYKAACKKQEGKPFTVDAAIAKRVASDVAMRVTTEAVQIFGGYGYSEEYPVARHMRDAKITQIYEGTNEVQLMVTGGALLR
notes: Butyryl-CoA dehydrogenase, Megasphaera elsdenii, locus tag Mels_2128; oxidized form in the assay; Plasmid derived from pASG-IBA3; also called oxidized bcd; source: E. coli BL21, purified (Strep-Tactin XT Superflow)
With B1 the Kd [4] was < 2 µM.
